Laboratory results published in article PMC9459403, “New inhibitors of cathepsin V impair tumor cell proliferation and elastin degradation and increase immune cell cytotoxicity” (Computational and Structural Biotechnology Journal, 2022).

Columns and labels:
[1] = Aqueous stability (HPLC-based assay); assay type: physicochemical; details: 50 μM, 60 h
Procedure: HPLC analyses were performed as described under the Compound characterization section. The method used a Waters Acquity UPLC® HSS C18 SB column (2.1 × 50 mm, 1.8 µm) thermostated at 40 °C, injection volume, 10 µL; flow rate, 0.3 mL/min; detector λ, 280 nm; mobile phase A: 0.1 % TFA (v/v) in water; mobile phase B: MeCN. Method: 0–9 min, 5 % – 95 % B; 9 – 11 min, 95 % B; 11 – 11.5 min, 95 % - 5% B.
Compound 7 stock solution (1 mM) was prepared in DMSO, while internal standard (caffeine, 1 mM) was dissolved in buffer (PBS pH 7.4). The aqueous stability solution was prepared by mixing 1400 µL buffer, 400 µL MeCN, 100 µL internal standard stock solution, and 100 µL compound stock solution in a HPLC vial to give 50 μM compound, 50 μM internal standard, 20 % MeCN, and 5 % DMSO in buffer, which was injected immediately and then at hourly intervals for 60 h while being incubated at 37 °C. The analyte areas under curve (AUCs) were normalized on internal standard AUCs.

[2] = tested on: U-937-derived macrophages; experiment: Intracellular elastin-FITC degradation; assay type: cell-based, human
Procedure: To evaluate the effect of the inhibitors on the elastolytic activity of cathepsin V, we assessed the intracellular degradation of elastin-FITC, a soluble bovine neck ligament elastin that is heavily labeled with FITC such that the fluorescence of the conjugate is quenched. Upon proteolysis, fluorescence is recovered and can be detected. U-937 cells, differentiated into macrophage-like cells, were seeded (at 1 × 10^5 cells/well) into 24-well plates with 500 μL of medium supplemented with 50 nM PMA. Inhibitors or DMSO (0.1 %) and elastin-FITC (10 μg/mL; AnaSpec, Fermont, CA, USA) were added to the medium and incubated for 24 h at 37 °C. Cells were detached and washed with PBS, and propidium iodide (BD Bioscience) was added to exclude dead cells. Therefore, green fluorescence arising from elastin-FITC degradation was monitored only for viable cells. The measurement was performed using a FACSCalibur instrument (BD Biosciences).

NK-92 cells = experiment: Cell viability assay (MTS); assay type: cell-based; details: up to 10 μM, 24 h
Procedure: (§1) The effect of compound 7 on the viability of NK-92, TALL-104, and K-562 cells was evaluated using the MTS [3-(4,5-dimethylthiazol-2-yl)-5-(3-carboxymetoxyphenyl)-2-(4-sulfophenyl)–2H-tetrazolium] colorimetric assay (CellTiter 96 Aqueous One Solution Cell Proliferation Assay, Promega, Madison, WI, USA). NK-92, TALL-104, and K-562 cells were seeded at 2.5 × 10^4, 1 × 10^5, and 1 × 10^4 cells/well, respectively, into a 96-well microplate and treated with inhibitors (2.5, 5, or 10 µM) or DMSO (0.1 %) for 24 h. After incubation, 10 µL of the reagent MTS was added to the wells, and the absorbance of formazan was measured at 492 nm on a Tecan Infinite M1000 (Mannedorf, Switzerland). Cell viability (%) was expressed as the ratio between absorbance in the presence of the compounds and in the presence of DMSO. All assays were performed in quadruplicate and repeated at least twice.

TALL-104 cells = experiment: Cell viability assay (MTS); assay type: cell-based; details: up to 10 μM, 24 h
Procedure: as §1

K-562 cells = experiment: Cell viability assay (MTS); assay type: cell-based, human; details: 24 h
Procedure: as §1

[3] = tested on: NK-92 effector cells on target K-562 cells; experiment: Calcein AM release assay (cytotoxicity); assay type: cell-based, human; details: effector cells treated 10 µM, 6 h
Procedure: (§2) Effector cells (NK-92 or TALL-104; 1 × 10^6/ml) were treated with E-64d (10 µM) or compound 7 (10 µM) for 6 h. NK-92 cells were pre-treated with 1000 IU IL2/mL overnight prior to the addition of inhibitors. Effector cells were added to a 96-well U-bottom plate to achieve a selected effector-to-target ratio (E:T). Target K-562 cells were labelled with 15 µM Calcein-AM (Sigma) in serum-free RPMI 1640 medium for 30 min at 37 °C. Cells were then washed twice and resuspended in complete RPMI 1640 medium. Target cells (n = 5000) were added to the effectors. The plate was centrifuged at 200 × g for 1 min and incubated at 37 °C and 5 % CO2 for 4 h. After incubation, the plate was centrifuged at 700 × g for 5 min. The supernatant (50 µL) was transferred to a new microtiter plate to measure the fluorescence of the released Calcein-AM with a Tecan M1000 microtiter plate reader using 496 nm excitation and 516 nm emission filters. The percentage of cytotoxicity was calculated as follows: 100(test release-spontaneous release)/(total release-spontaneous release). Spontaneous release was measured in wells containing only target cells. For total release, 2 % Triton X-100 was added to the wells to achieve lysis of target cells. Lytic units (LU) were calculated using the inverse of the number of effector cells needed to lyse 30 % of the target cells multiplied by 100.

[4] = tested on: TALL-104 effector cells on target K-562 cells; experiment: Calcein AM release assay (cytotoxicity); assay type: cell-based, human; details: effector cells treated 10 µM, 6 h
Procedure: as §2

O=C(NCc1cccc2ccccc12)NCC1CCN(C(=O)Oc2ccccc2)CC1 [Compound 7, Phenyl 4-((3-(naphthalen-1-ylmethyl)ureido)methyl)piperidine-1-carboxylate]
aqueous stability ([1]; PBS pH 7.4, 20 % MeCN, 5 % DMSO, 37 °C): stable for days | difference between the last and the first timepoint (normalized AUC) ([1]; PBS pH 7.4, 37 °C, smaller than experimental error): < 2% | decrease of elastin-FITC degradation ([2]; 10 μM, 24 h, vs DMSO): 9.5 ± 1.6% | elastin-FITC degradation, compound 7 added to CLIK-148 ([2]; compound 7 10 μM + CLIK-148, vs control cells and CLIK-148 alone): significantly decreased | viability of NK-92 cells (NK-92 cells): not significantly reduced | viability of TALL-104 cells (TALL-104 cells): not significantly reduced | viability of K-562 cells (K-562 cells; 10 μM): slightly decreased | viability of K-562 cells (K-562 cells; up to 5 μM): not decreased | cytotoxicity of NK-92 cells (target cell killing) [3]: significantly increased | cytotoxicity of TALL-104 cells (target cell killing) [4]: significantly increased
